The values that follow come from patent US20260207795A1, “SMALL MOLECULE TRACERS BINDING TO ALPHA-SYNUCLEIN AGGREGATES AND THEIR USES” (Fudan University, priority 2021, published 2026).

The target in data set [1] is T1, human α-synuclein aggregates (Homo sapiens, UniProt P37840).
T1 construct: made in house; host or cells: E. coli BL21 (DE3)
As to the kind of experiment: Binding affinity of the compounds to α-synuclein aggregates (fluorescence method). To be noted: fluorescence saturation binding; α-synuclein aggregates (PFFs) 3 μM; room temperature, 1 hour. The method, then: α-synuclein monomers were prepared into a buffer solution containing 1×PBS, where the final protein concentration was 100 μM ([…]), and incubated in a 1000 rpm shaker at 37° C. for 7 days to obtain α-synuclein aggregates. The initial and final concentrations of the monomer protein were determined by the BCA method.
The prepared α-synuclein aggregates, also known as preformed fibrils (PFFs), are used for protein affinity testing, construction of cell model, and testing of the invention.
10 mM mother solution of DMSO was prepared from 1 mg of the compound, then diluted to 20 μM with PBS, and made gradient dilution 7 times (3× each dilution); 30 μL of test compound was added to the 384-well plate, following the experimental group was added to 30 μL α-synuclein aggregates (3 μM), and the control group was added to the same amount of PBS. After the 384-well plate was incubated shaking at 50 rpm at room temperature for 1 hour, the plate was taken out to detect the maximum absorption and emission wavelengths of the compound with an ELISA Microplate Reader, and the fluorescence values were detected at these wavelengths, too. The fluorescence changes in different concentrations of compounds were calculated using the experimental group data minus the control group data, and the protein-binding affinity of compounds was obtained using the Saturation binding module of GraphPad Prism.
The binding affinity of the Formula I compound to α-synuclein aggregates is determined by the above method, and the dissociation equilibrium constant Kd is shown in Table 1.

In data set [2] the target is T2, α-synuclein aggregates in SH-SY5Y cells (Homo sapiens, UniProt P37840).
T2 construct: made in house; host or cells: E. coli BL21 (DE3)
Put plainly: Immunofluorescence imaging of SH-SY5Y cell model with α-synuclein aggregates (PFFs). Format: cell-based. To be noted: co-staining with α-synuclein antibody, compound 1 h at room temperature. As to the method:
SH-SY5Y cells belong to the SK—N—SH cell line and are a kind of human neuroblastoma cells. These cells can express a variety of important proteins of neurons, such as dopaminergic transporters, dopamine hydroxylase, and tyrosine hydroxylase, so they are often used in the study of the mechanism and pharmacodynamic evaluation of Parkinson's disease. The prepared α-synuclein aggregates (PFFs) are co-incubated with SH-SY5Y cells and endocytosed into cells after 12 hours through endocytosis. The cells were further incubated with α-synuclein antibodies and compounds successively, and observed by microscope after washing with PBS. The detailed operations are as follows.
SH-SY5Y cells were cultured in a high-glucose DMEM medium (containing 10% Gibco fetal bovine serum). After 5 times of resuscitation and passage, the cell state tended to be stable. Then PFFs was added to the medium and fluorescent staining was performed after 48 h. After sucked the cell culture solution and cleaned with PBS three times, 0.3% Triton X-100 was added and incubated for 10 min. After washing with PBS, 10% goat serum was added and closed for 1 h; After cleaning with PBS, primary antibody (1:1000, 610786, BD Biosciences) was added and incubated at 4° C. overnight. After cleaning with PBS, secondary antibodies (1:1000, goat-anti-rabbit Alex Fluor 594, and goat-anti-mouse Alex Fluor 488, Invitrogen) were added and incubated at room temperature for 2 h. Finally, the compound of the invention is added and incubated at room temperature for 1 h. After cleaning with PBS, the tablet is sealed and photographed by a laser confocal microscope.

Data set [3] is described as follows: Blood-brain barrier permeability test in rat. Type of data set: in vivo. To be noted: brain homogenate / blood supernatant after centrifugation, intravenous, SD rats, 5 mg/kg tail vein, 20 min after administration, LC-MS/MS, >0.3 indicates good blood-brain barrier penetration, read-out: brain/blood ratio. As to the method:
The compound of the invention is injected into a rat tail vein to determine the blood-brain barrier permeability in vivo according to the following method.
Dissolve the tested compound in DMSO, and add castor oil and PBS for dilution (DMSO:castor oil:PBS=1:1:8). SD rats were weighed and given 5 mg/kg in the tail vein. 500 μL of blood was taken 20 min after administration after anesthetized with isoflurane. Cardiac perfusion was performed with 200 mL PBS and stopped until the organ faded, following brain tissue was got out and washed with PBS.
After centrifuging the extracted blood at 9000 rpm for 5 min, 200 μL supernatant was taken, and added 800 μL methanol. After centrifuging at 14000 rpm for 10 min, the supernatant was taken and filtered through a 0.22 μm filter membrane and stored at −80° C. for use. 2 mL PBS and 2 mL methanol were added to about 0.5 g of brain tissue to make a tissue homogenization, and then 1 mL homogenate was taken out and centrifuged at 14,000 rpm for 10 min after 2 mL methanol was added, 1 mL supernatant was taken through 0.22 μm filter membrane and stored at −80° C. for use. The concentration of compounds in the above supernatant of blood and brain homogenate were checked by LC-MS/MS, respectively.
A brain/blood ratio of <0.1, 0.1-0.3, or >0.3 indicates blood-brain barrier penetration of weak, moderate, or good, respectively. […] Since all the compounds of the invention have similar structures and their clogP values are mostly between 1.0 and 3.0, it can be predicted that other compounds of the invention should also have acceptable blood-brain barrier permeability.

Data set [4] concerns the target T3, Lewy bodies and Lewy neurites (α-synuclein lesions) (Homo sapiens, UniProt P37840).
T3 construct: from tissue; host or cells: human DLB patient amygdala, fresh frozen sections
Put plainly: Fluorescence staining of brain slices from patients of dementia with Lewy body (DLB). The method, then: Brain slices from patients of dementia with Lewy bodies were taken from the amygdala of a deceased person in stage 2 of dementia with Lewy bodies. Frozen sections of the amygdala with rich α-synuclein were performed with a thickness of 20 μm.
(§1) Compound I-15 was diluted to 30 μM with PBS solution containing 50% EtOH, following incubated with the fresh frozen brain sections at room temperature for 30 minutes, then washed with 50% ethanol solution for 5 minutes and ultra-pure water twice for 3 minutes each time in sequence. After the sections were buried with an embedding agent (VECTASHIELD H-1000, Vector Laboratories), images of the lesion accumulation area on the sections were obtained by fluorescence microscopy. Analysis software (Image J) was used to quantify the fluorescence radiance of both the lesion area and the area of the non-forming lesion (background) to evaluate binding selectivity.

For data set [5], the system named is Aβ plaques and Tau neurofibrillary tangles. Put plainly: Fluorescence staining of brain slices from patients with Alzheimer's disease (AD). On the set-up: species or system human. To be noted: AD patient superior temporal gyrus sections, compound 30 μM. As to the method:
as §1
The dewaxed brain tissue was fixed in a 10% neutral buffer of formalin solution, embedded with paraffin, and then sliced with a thickness of 6 μm. The staining method is the same as the above method for DLB patients.

In general, Kd refers to the free concentration of one partner at which half of the binding sites on the other are occupied at equilibrium, for simple one-to-one binding. For `CN(C)c1ccc(/C=C/c2nc3cc(OCCF)ccc3n(Cc3ccccn3)c2=O)cc1` [I-6], in data set [1], the dissociation constant (Kd) is 0.2 to 0.5 µM. Besides, in data set [2], the “binding to α-synuclein aggregates in SH-SY5Y cells (immunofluorescence, FIG. 1)” value (from here on “binding to α-synuclein aggregates”) was “excellent binding affinity and specificity”. The Kp at 20 min in data set [3] was ≥ 1.
`CN(C)c1ccc(/C=C/c2nc3cc(OCCF)ccc3n(Cc3ccncc3)c2=O)cc1` [I-12] showed a Kd in data set [1] of 0.2 to 0.5 µM. In data set [2], the “binding to α-synuclein aggregates” value is “excellent binding affinity and specificity”. The Kp at 20 min in data set [3] was ≥ 1.
In data set [1], `CN(C)c1ccc(/C=C/c2nc3cc(F)ccc3n(Cc3ccncc3)c2=O)cc1` [I-3] gave a Kd of 0.5 to 1 µM.
The same measure, in the same setting: with `CN(C)c1ccc(/C=C/c2nc3cc(F)ccc3n(Cc3cccnc3)c2=O)cc1` [I-2] the figure was 0.5 to 1 µM; with `CN(C)c1ccc(/C=C/c2nc3cc(F)ccc3n(Cc3ccccn3)c2=O)cc1` [I-1], 0.1 to 0.2 µM.
In data set [1], `CN(C)c1ncc(/C=C/c2nc3cc(OCCF)ccc3n(Cc3ccccn3)c2=O)s1` [I-15] displayed a Kd of 0.1 to 0.2 µM. Also, in data set [2], the “binding to α-synuclein aggregates” value is “excellent binding affinity and specificity”. The “binding affinity to α-synuclein lesions (staining of Lewy bodies and Lewy neurites, FIG. 2)” value in data set [4] (DLB patient amygdala frozen sections, compound 30 μM, 30 minutes) is “strong binding affinity”. Moreover, the “binding to α-synuclein pathological tissue compared with Aβ and Tau pathological tissue (selectivity)” value in data set [4] (DLB versus AD brain slices, FIG. 2 and FIG. 3) was “significantly stronger”. Moreover, in data set [5], the “binding affinity to Aβ and Tau histology (FIG. 3)” value was “very weak”; the “binding to Tau neurofibrillary filaments (FIG. 3)” value is “did not bind”. Besides, in data set [3], the Kp at 20 min was ≥ 1.
As for `CN(C)c1ccc(/C=C/c2nc3cc(OCCF)ccc3n(Cc3cccnc3)c2=O)cc1` [I-9], the Kd in data set [1] fell in the range of 0.5 to 1 µM.
